US12084422B2, “Phenyl-n-quinoline derivatives for treating a RNA virus infection” (ABIVAX, priority 2018, dated 2024)

Experiments:
[1] = system: Chikungunya Virus (CHIKV) strain LR2006-OPY1 with GFP modification (CHIK 5'LR); experiment: Inhibition of Chikungunya virus (CHIKV) production in infected HEK293T cell line (GFP fluorescence); format: cell-based; conditions: HEK-293T, infected HEK293T cells; for IC50: second round of experiments; for inhibition at 1 µM: compounds at 1 μM, MOI 0.1, 22 h, values above 100 lowered to 100, read-out: % CHIKV Inhibition Mean (n = 2)
Method: The ability of the compounds to inhibit viral replication was assessed with an experiment in which infected cells were treated by compounds of formula (I) at 1 μM. As a positive control for inhibition of Chikungunya, Ribavirin was used. Toxicity of the compounds was assessed in parallel.
Human embryonic kidney cells 293T (HEK293T, CRL-11268) were maintained in Dulbecco's modified Eagle's Medium (DMEM, 31966-021, Thermo Fisher Scientific) supplemented with 10% of fetal bovine serum (FBS), penicillin and streptomycin. After removal of the medium, cells were washed with a Ca^2+- and Mg^2+-free salt solution to remove all traces of serum. After aspiration of wash solution, cells were dissociated with 0.25% Trypsin-EDTA solution and incubated 30 s at least in 37° ° C. incubator. Concentration of cell suspension was determined by an automatic cell counter (EVE, NanoEntek) and, if needed, adjusted to 0.33×10^6 cells/mL with DMEM medium supplemented with 10% FBS.
100 μL of the cell suspension were dispatched in a ViewPlate-96 Black (6005182, PerkinElmer) and in a transparent 96-well cell culture plate (655180, Greiner bio-one). After an incubation for 24 h at 37° C. under 5% of CO2, compounds were added at the proper concentration.
An intermediate dilution was prepared with DMSO (D8418, Sigma) at 2 mM in a 96-well V-bottom microplate from the stock solution:
Mix 1 μL of the 50 mM stock library in 25 μL of DMSO.
Mix 2 μL of the 25 mM stock library in 25 μL of DMSO.
An intermediate dilution was prepared with DMSO (D8418, Sigma) at 25 mM in a 96-well V-bottom microplate from the stock solution:
Mix 2 μL of the 50 mM stock library in 2 μL of DMSO.
Serial dilutions were performed in 2 μL of DMSO 13 times to reach 0.0015 mM as follows in table III:
For both screen and determination of IC50 1 μL of each solution was added in a 1 mL Masterblock 96 wells (Greiner bio-one, 780261) containing 1 mL of DMEM medium. As a positive control, 5 μL of a 80 mM Ribavirin solution (R9644, Sigma) is added to 1 mL of DMEM. On the other hand, DMSO is used as a negative control.
[…]. Vector Borne Zoonotic Dis. 2006; 6(4)). This modified virus was used to infect cells at MOI 0.1. […].
Medium was removed after 22 h at 37° ° C. under 5% of CO2 and cells were washed as described above. 60 μL of RIPA buffer (50 mM Tris-HCl pH8, 100 mM NaCl, 1 mM MgCl2, 1% Triton X-100) was added to cells and incubated for at least 20 min before reading fluorescence signal. Pierce 660 nm Protein Assay Reagent (22660, Thermo scientific) was used to normalize fluorescence signal by protein quantity.
A first round of experiments has been performed wherein the results are expressed as inhibition percentage, which is calculated as follows, through the following steps:
1. Fluorescence intensity (FI) 509 nm/Absorbance 660 nm (A660)=A
This ratio allows considering the infection (GFP virus) to the protein amount.
2. A′=A—background noise of non-infected plate,
3. B=Fluorescence intensity (FI)/Absorbance 660 nm (A660) of infected but non treated plates,
4. C=A′/B which is then converted as the percentage of infection after treatment, compared to non-treated sample, and subsequently as the […]. For instance, a value of 100 in Table IV here below means that, after treatment, the signal attributed to GFP fluorescence is abolished, which is correlated to the absence of infection.
This value corresponds to the inhibition's percentage.
The following Table IV encompasses said C′ value for some compounds as calculated above with a mean of 2 experiments, and the corresponding standard deviation.
Some values were originally above 100. In these cases, the value has been lowered to 100. This means that some molecules also have an impact on the viability of the cells. In other words, the A value may be lower than the background noise.
Moreover, for each measure, the test was performed with Ribavirin as control. The value of the inhibition percentage was checked, giving 100%.

DENV-2 strain 16681 = experiment: Screening for DENV-2 inhibition using Viral ToxGlo assay in A549 cells; format: cell-based, Dengue 2 virus; conditions: Dengue virus, DENV2, A549, 120 h, read-out: % DENV-2 Inhibition Mean (n = 3)
Method: Protocol for Screening Antiviral Compounds for DENV-2 Inhibition and Cytotoxicity Using Viral ToxGlo Assay
A549 cells were maintained in Dulbecco's Modified Eagle Medium (DMEM) supplemented with 10% fetal bovine serum, 100 U/ml penicillin and 100 μg/ml streptomycin. For the purposes of the screening assay they were grown to 90% confluency, trypsinized and recovered. The trypsin was neutralised with cell culture media and cells were centrifuged at 150×g for 5 minutes before discarding the supernatant and resuspending cell pellet in assay media (DMEM supplemented with 2% fetal bovine serum and 100 U/ml penicillin and 100 μg/ml streptomycin). The cells were seeded into 96-well white clear-bottomed cell culture plates at a density of 1.0×10^4 cells/well in 50 μl. For the media/background control column assay media only was added. Cell plates were placed in a humid chamber and incubated overnight at 37° C./5% CO2. After overnight incubation cells were checked for confluency and healthy appearance.
Test compounds were prepared at a final concentration of 10 μM, in a maximum DMSO concentration of 1% (final assay concentration maximal 0.1% DMSO) and added to the cell plates in volumes of 10 μl. For cell control and virus control wells the test article solvent only was added. As a positive inhibition control, 7-Deaza-2′-C-methyladenosine was added at 100 μM in 3 wells. Virus (DENV-2 strain 16681) or assay media for cytotoxicity test wells and media/cell control wells was added immediately after test articles at an MOI of 0.5, 40 for 96 well plates respectively. Virus suspension was prepared by thawing DENV-2 frozen stocks and diluting to the required concentration of plaque forming units in assay media.
Cell plates were further incubated inside a humid chamber for 5 days p.i at 37° C./5% CO2. After the incubation period cells were observed under the microscope to check for characteristic cytopathic effect in virus control wells and healthy cells in the cell control wells. After plates were adjusted to room temperature 20 μl Viral ToxGlo (Promega) was added to each well of the 96-well cell plates. Plates were incubated at room temperature for 5 minutes before measuring the luminescence on a spectrophotometer (Envision, PerkinElmer).
DENV-2 inhibition was calculated as percentage of cytopathic effect inhibition relative to the virus control and cytotoxicity as percentage of cell survival relative to cell control wells.

Row | Compound | IC50 [1] [nM] | inhibition at 10 µM (DENV-2 strain 16681) [%] | inhibition at 1 µM [1] [%]
1 | Clc1cccc2ccc(Nc3ccc(OC4CCC4)cc3C3CC3)nc12 [Compound 42, 8-chloro-N-(4-cyclobutoxy-2-cyclopropylphenyl)quinolin-2-amine] | 1 to 200 | 84 | –
2 | Fc1ccccc1Oc1ccc(Nc2ccc3cccc(Cl)c3n2)cc1 [Compound 32, 8-chloro-N-(4-(2-fluorophenoxy)phenyl)quinolin-2-amine] | – | – | 90
3 | Cc1cc(OCCOC(F)(F)F)ccc1Nc1ccc2cccc(Cl)c2n1 [Compound 14, 8-chloro-N-(2-methyl-4-(2-(trifluoromethoxy)ethoxy)phenyl)quinolin-2-amine] | – | – | 91
4 | FC(F)(F)Oc1ccc(Nc2ccc3ccccc3n2)c(C2CC2)c1 [Compound 8, N-(2-cyclopropyl-4-(trifluoromethoxy)phenyl)quinolin-2-amine] | – | – | 100
5 | Cc1c(Nc2ccc3cccc(Cl)c3n2)ccc(OC(C)C)c1C [Compound 21, 8-chloro-N-(4-isopropoxy-2,3-dimethylphenyl)quinolin-2-amine] | 1 to 200 | – | 100
6 | Cc1cc(OC2CCCCC2)ccc1Nc1ccc2cccc(Cl)c2n1 [Compound 17, 8-chloro-N-(4-(cyclohexyloxy)-2-methylphenyl)quinolin-2-amine] | 1 to 200 | – | 100
7 | CCc1cc(OC(F)(F)F)ccc1Nc1ccc2ccccc2n1 [Compound 7, N-(2-ethyl-4-(trifluoromethoxy)phenyl)quinolin-2-amine] | – | – | 99
8 | Cc1cc(OC2CCCC2)ccc1Nc1ccc2cccc(Cl)c2n1 [Compound 16, 8-chloro-N-(4-(cyclopentyloxy)-2-methylphenyl)quinolin-2-amine] | 1 to 200 | 77 | 98
9 | COc1ccc(Oc2ccc(Nc3ccc4ccccc4n3)c(C)c2)c(F)c1 [Compound 45, N-(4-(2-fluoro-4-methoxyphenoxy)-2-methylphenyl)quinolin-2-amine] | 1 to 200 | – | –
10 | Fc1ccccc1Oc1ccc(Nc2ccc3ccccc3n2)cc1 [Compound 29, N-(4-(2-fluorophenoxy)phenyl)quinolin-2-amine] | – | – | 97
11 | CC(C)Oc1ccc(Nc2ccc3cccc(Cl)c3n2)c(C2CC2)c1 [Compound 20, 8-chloro-N-(2-cyclopropyl-4-isopropoxyphenyl)quinolin-2-amine] | 1 to 200 | 94 | 99
12 | Cc1cc(OC2CCC2)ccc1Nc1ccc2cccc(Cl)c2n1 [Compound 22, 8-chloro-N-(4-cyclobutoxy-2-methylphenyl)quinolin-2-amine] | 1 to 200 | 82 | 100
13 | FC(F)(F)Oc1ccc(Nc2ccc3cccc(Cl)c3n2)c(C2CC2)c1 [Compound 4, 8-chloro-N-(2-cyclopropyl-4-(trifluoromethoxy)phenyl)quinolin-2-amine] | 1 to 200 | – | 100
14 | Clc1cccc2ccc(Nc3ccc(OC4CCCC4)cc3C3CC3)nc12 [Compound 44, 8-chloro-N-(4-(cyclopentyloxy)-2-cyclopropylphenyl)quinolin-2-amine] | 1 to 200 | 94 | –
15 | CCc1cc(OC(F)(F)F)cc(C)c1Nc1ccc2cccc(Cl)c2n1 [Compound 5, 8-chloro-N-(2-ethyl-6-methyl-4-(trifluoromethoxy)phenyl)quinolin-2-amine] | – | 156 | –
16 | CCc1cc(OC(F)(F)F)ccc1Nc1ccc2cccc(Cl)c2n1 [Compound 2, 8-chloro-N-(2-ethyl-4-(trifluoromethoxy)phenyl)quinolin-2-amine] | 1 to 200 | – | 100
17 | Cc1ccc(Oc2ccc(Nc3ccc4cccc(Cl)c4n3)cc2)cc1 [Compound 31, 8-chloro-N-(4-(p-tolyloxy)phenyl)quinolin-2-amine] | – | – | 93
18 | COc1ccc(Oc2ccc(Nc3ccc4ccccc4n3)cc2)c(F)c1 [Compound 77, N-(4-(2-fluoro-4-methoxyphenoxy)phenyl)quinolin-2-amine] | – | 87 | –
19 | Cc1cc(Oc2ccccc2F)c(C)cc1Nc1ccc2cccc(Cl)c2n1 [Compound 63, 8-chloro-N-(4-(2-fluorophenoxy)-2,5-dimethylphenyl)quinolin-2-amine 2,2,2-trifluoroacetate] | – | 74 | –
20 | Cc1cc(OCc2ccccn2)ccc1Nc1ccc2cccc(Cl)c2n1 [Compound 23, 8-chloro-N-(2-methyl-4-(pyridin-2-ylmethoxy)phenyl)quinolin-2-amine] | – | – | 82
21 | CCc1cc(OC2CCC2)ccc1Nc1ccc2cccc(Cl)c2n1 [Compound 41, 8-chloro-N-(4-cyclobutoxy-2-ethylphenyl)quinolin-2-amine] | 1 to 200 | – | –
22 | CCc1cc(Oc2ccc(OC)cc2F)ccc1Nc1ccc2ccccc2n1 [Compound 76, N-(2-ethyl-4-(2-fluoro-4-methoxyphenoxy)phenyl)quinolin-2-amine] | – | 78 | –
23 | CC(C)Cc1cc(OC(F)(F)F)ccc1Nc1ccc2cccc(Cl)c2n1 [Compound 3, 8-chloro-N-(2-isobutyl-4-(trifluoromethoxy)phenyl)quinolin-2-amine] | – | – | 100
24 | CCOc1ccc(Nc2ccc3cccc(Cl)c3n2)c(C)c1 [Compound 12, 8-chloro-N-(4-ethoxy-2-methylphenyl)quinolin-2-amine] | – | 129 | 95
25 | Cc1cc(OC(C)C)c(C(C)C)cc1Nc1ccc2cccc(Cl)c2n1 [Compound 40, 8-chloro-N-(4-isopropoxy-5-isopropyl-2-methylphenyl)quinolin-2-amine] | 1 to 200 | 97 | –
